target: T1, LIM domain kinase 1 (Homo sapiens, UniProt P53667); experiment: Inhibition of LIMK1 (unknown origin) using cofilin-2 as substrate at 30 uM after 60 mins by Kinase-Glo assay relative to control
Target sequence in this assay (P53667 whole entry, looked up, the tested form may be a part): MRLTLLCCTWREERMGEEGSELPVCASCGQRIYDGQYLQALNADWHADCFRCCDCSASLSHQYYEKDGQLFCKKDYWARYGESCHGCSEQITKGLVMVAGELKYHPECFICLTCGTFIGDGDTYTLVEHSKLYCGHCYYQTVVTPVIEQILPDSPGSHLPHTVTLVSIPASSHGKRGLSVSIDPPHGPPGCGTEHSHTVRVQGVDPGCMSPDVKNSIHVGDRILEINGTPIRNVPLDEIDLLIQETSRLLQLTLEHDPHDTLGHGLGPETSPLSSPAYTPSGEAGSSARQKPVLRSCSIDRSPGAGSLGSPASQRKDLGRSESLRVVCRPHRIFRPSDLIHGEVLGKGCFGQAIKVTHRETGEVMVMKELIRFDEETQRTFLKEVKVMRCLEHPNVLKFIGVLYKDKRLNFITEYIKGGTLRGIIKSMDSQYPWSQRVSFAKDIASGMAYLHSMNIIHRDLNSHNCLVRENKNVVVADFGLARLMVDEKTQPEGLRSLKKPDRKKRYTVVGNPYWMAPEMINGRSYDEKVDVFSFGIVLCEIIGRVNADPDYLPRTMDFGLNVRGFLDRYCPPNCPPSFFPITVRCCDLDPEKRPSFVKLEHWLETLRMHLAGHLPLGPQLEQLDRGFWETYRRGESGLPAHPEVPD

Row | SMILES | inhibition [%]
1 | Nc1c(C(=O)N2CCOCC2)sc2ncccc12 | 0
2 | Nc1c(C(=O)Nc2ccccc2)sc2nccc(Nc3ccccc3)c12 | 0
3 | NC(=O)c1sc2ncccc2c1N | 40
4 | Cc1ccnc2sc(C(N)=O)c(N)c12 | 79
5 | NC(=O)c1sc2nccc(Nc3ccccc3)c2c1N | 98
6 | NC(=O)c1sc2ncc3c(c2c1N)CCCC3 | 16
7 | CN(C)c1ccnc2sc(C(N)=O)c(N)c12 | 67
8 | NC(=O)c1sc2nc3c(c(-c4cccs4)c2c1N)CCC3 | 50
9 | Nc1c(C(=O)NC2CCCCC2)sc2ncccc12 | 2
10 | Nc1c(C(=O)Nc2ccccc2)sc2ncccc12 | 15

target: T1, LIM domain kinase 1; experiment: Inhibition of LIMK1 (unknown origin) using cofilin-2 as substrate after 60 mins by Kinase-Glo assay
Target sequence in this assay (P53667 whole entry, the tested form may be a part): as the sequence (P53667 whole entry, looked up, the tested form may be a part) above

Row | SMILES | IC50 [µM]
11 | NC(=O)c1sc2nc(-c3ccccc3)cc(-c3ccco3)c2c1N | 2
12 | Nc1ncnc2c1sc1nccnc12 | > 100
13 | CNC(=O)c1sc2ncccc2c1N | > 100
14 | NC(=O)c1sc2nc(-c3cccs3)cc(C(F)(F)F)c2c1N | 1.6
15 | CNc1c(C(N)=O)sc2ccccc12 | 34
16 | Nc1ncnc2c1sc1ccc(-c3ccccc3)cc12 | 5.7
17 | Nc1ncnc2c1sc1cccc(-c3ccccc3)c12 | 5.5
18 | Cc1cc(C)c2c(N)c(C(N)=O)sc2n1 | 9
19 | Nc1ncnc2c1sc1c(-c3ccccc3)cccc12 | 6.1
20 | Cc1ccnc2sc(C(N)=O)c(N)c12 | 11
21 | Cc1cc(-c2ccc(Cl)cc2)c2c(N)c(C(N)=O)sc2n1 | 37
22 | Nc1ncnc2c1sc1cccnc12 | 43
23 | NC(=O)c1sc2nc(-c3cccnc3)ccc2c1N | 7.1
24 | NC(=O)c1cc2ccccc2s1 | > 100
25 | Nc1ncnc2c1[nH]c1ccccc12 | 4
26 | Nc1c(C(=O)O)sc2ccccc12 | > 100
27 | NC(=O)c1oc2ccccc2c1N | > 100

Row | SMILES | IC50 [µM]
28 | Nc1ncnc2c1sc1nc(-c3ccccc3)ccc12 | 0.7
29 | Cc1nc(N)c2sc3ncccc3c2n1 | 43
30 | NC(=O)c1sc2nc(-c3ccc4c(c3)OCCO4)cc(C(F)(F)F)c2c1N | 1.3
31 | Cc1ccc2c(N)c(C(N)=O)sc2n1 | 56
32 | NC(=O)c1sc2nc(-c3ccccc3)ccc2c1N | 3
33 | NC(=O)c1sc2nc(Cc3ccccc3)cc(C(F)(F)F)c2c1N | 30
34 | CCOC(=O)c1sc2ccccc2c1N | > 100
35 | Nc1c(C(=O)O)sc2ncccc12 | > 100
36 | NC(=O)c1sc2cccnc2c1N | 92
37 | Nc1ncnc2c1oc1ccccc12 | 15
38 | Nc1nc(-c2ccccc2)nc2c1sc1ncccc12 | > 50
39 | CN(C)C(=O)c1sc2ncccc2c1N | > 100
40 | COc1ccc(-c2cc(-c3ccccc3)nc3sc(C(N)=O)c(N)c23)cc1 | 44
41 | NC(=O)c1sc2nc(-c3ccccc3)c3c(c2c1N)CCCC3 | 2.8
42 | Cc1ccc(-c2cc(C(F)(F)F)c3c(N)c(C(N)=O)sc3n2)o1 | 41
43 | NC(=O)c1sc2ccccc2c1O | > 100
44 | NNC(=O)c1sc2ncccc2c1N | > 100

From ChEMBL document CHEMBL3217427, “Identification of 3-aminothieno[2,3-b]pyridine-2-carboxamides and 4-aminobenzothieno[3,2-d]pyrimidines as LIMK1 inhibitors” (Medchemcomm, 2011)
